Experimental data from ChEMBL document CHEMBL3885881, “DrugMatrix”.

Species: Rattus norvegicus
Test: DrugMatrix - Regimen: Daily Repeat
Format: toxicity, organism-based, Sprague-Dawley
Design: regimen Daily Repeat, gender Male, age 6-8 weeks
Conditions: in vivo, po, route oral GAVAGE, […]; for ABSOLUTE BASOPHIL / ABSOLUTE EOSINOPHIL / ABSOLUTE LYMPHOCYTE / ABSOLUTE MONOCYTE / ABSOLUTE SEGMENTED NEUTROPHIL / BASOPHIL / EOSINOPHIL / ERYTHROCYTE COUNT / HEMATOCRIT / HEMOGLOBIN / LEUKOCYTE COUNT / LYMPHOCYTE / MEAN CORPUSCULAR HEMOGLOBIN / MEAN CORPUSCULAR HEMOGLOBIN CONCENTRATION / MEAN CORPUSCULAR VOLUME / MONOCYTE / NEUTROPHIL / NUCLEATED RED BLOOD CELLS / PLATELET COUNT: tissue Blood; for ALANINE AMINOTRANSFERASE / ALBUMIN / ALKALINE PHOSPHATASE / ASPARTATE AMINOTRANSFERASE / BLOOD UREA NITROGEN / CARBON DIOXIDE / CHLORIDE / CHOLESTEROL / CREATINE PHOSPHOKINASE / CREATININE / GLUCOSE / LACTATE DEHYDROGENASE / LIPASE / PHOSPHORUS / POTASSIUM / SODIUM / TOTAL BILIRUBIN / TOTAL PROTEIN / URIC ACID: tissue Plasma
[1] = 0 mg/kg, 72 h, dose level Control, time 3 day
[2] = 0 mg/kg, 120 h, dose level Control, time 5 day
[3] = 50 mg/kg, 72 h, dose level Low, time 3 day

SMILES: Oc1ncnc2[nH]ncc12 [ALLOPURINOL]
- ABSOLUTE BASOPHIL [1]: 0 CELLS/uL
- ABSOLUTE EOSINOPHIL [1]: 0 CELLS/uL
- ABSOLUTE LYMPHOCYTE [1]: 14687.67 CELLS/uL
- ABSOLUTE MONOCYTE [1]: 164 CELLS/uL
- ABSOLUTE SEGMENTED NEUTROPHIL [1]: 1748.33 CELLS/uL
- BASOPHIL [1]: 0%
- EOSINOPHIL [1]: 0%
- ERYTHROCYTE COUNT [1]: 5.51 x10E6/uL
- HEMATOCRIT [1]: 33.68%
- HEMOGLOBIN [1]: 13.4 G/DL
- LEUKOCYTE COUNT [1]: 16.6 x10E3/uL
- LYMPHOCYTE [1]: 88.83%
- MEAN CORPUSCULAR HEMOGLOBIN [1]: 24.47 pg
- MEAN CORPUSCULAR HEMOGLOBIN CONCENTRATION [1]: 39.82 G/DL
- MEAN CORPUSCULAR VOLUME [1]: 61.23 fL
- MONOCYTE [1]: 0.83%
- NEUTROPHIL [1]: 10.33%
- NUCLEATED RED BLOOD CELLS [1]: 0 /100WBC
- PLATELET COUNT [1]: 1329.67 x10E3/uL
- ALANINE AMINOTRANSFERASE [1]: 61.33 u/L
- ALBUMIN [1]: 4.18 G/DL
- ALKALINE PHOSPHATASE [1]: 332.5 u/L
- ASPARTATE AMINOTRANSFERASE [1]: 98.33 u/L
- BLOOD UREA NITROGEN [1]: 15.83 mg/dL
- CARBON DIOXIDE [1]: 27.83 mmol/L
- CHLORIDE [1]: 100 MEQ/L
- CHOLESTEROL [1]: 76.17 mg/dL
- CREATINE PHOSPHOKINASE [1]: 729.17 u/L
- CREATININE [1]: 0.21 mg/dL
- GLUCOSE [1]: 151.83 mg/dL
- LACTATE DEHYDROGENASE [1]: 484.67 u/L
- LIPASE [1]: 10 u/L
- PHOSPHORUS [1]: 11.3 mg/dL
- POTASSIUM [1]: 6.1 MEQ/L
- SODIUM [1]: 142.9 MEQ/L
- TOTAL BILIRUBIN [1]: 0.23 mg/dL
- TOTAL PROTEIN [1]: 5.68 G/DL
- URIC ACID [1]: 1.75 mg/dL
- ABSOLUTE BASOPHIL [2]: 0 CELLS/uL
- ABSOLUTE EOSINOPHIL [2]: 58.67 CELLS/uL
- ABSOLUTE LYMPHOCYTE [2]: 15950.83 CELLS/uL
- ABSOLUTE MONOCYTE [2]: 172.5 CELLS/uL
- ABSOLUTE SEGMENTED NEUTROPHIL [2]: 2551.33 CELLS/uL
- BASOPHIL [2]: 0%
- EOSINOPHIL [2]: 0.33%
- ERYTHROCYTE COUNT [2]: 5.5 x10E6/uL
- HEMATOCRIT [2]: 34.05%
- HEMOGLOBIN [2]: 13.42 G/DL
- LEUKOCYTE COUNT [2]: 18.73 x10E3/uL
- LYMPHOCYTE [2]: 84.5%
- MEAN CORPUSCULAR HEMOGLOBIN [2]: 24.42 pg
- MEAN CORPUSCULAR HEMOGLOBIN CONCENTRATION [2]: 39.42 G/DL
- MEAN CORPUSCULAR VOLUME [2]: 61.97 fL
- MONOCYTE [2]: 1%
- NEUTROPHIL [2]: 14.17%
- NUCLEATED RED BLOOD CELLS [2]: 0.33 /100WBC
- PLATELET COUNT [2]: 1143.17 x10E3/uL
- ALANINE AMINOTRANSFERASE [2]: 57 u/L
- ALBUMIN [2]: 4.17 G/DL
- ALKALINE PHOSPHATASE [2]: 347.33 u/L
- ASPARTATE AMINOTRANSFERASE [2]: 93.67 u/L
- BLOOD UREA NITROGEN [2]: 15.67 mg/dL
- CARBON DIOXIDE [2]: 27.17 mmol/L
- CHLORIDE [2]: 104.33 MEQ/L
- CHOLESTEROL [2]: 69.5 mg/dL
- CREATINE PHOSPHOKINASE [2]: 317.17 u/L
- CREATININE [2]: 0.2 mg/dL
- GLUCOSE [2]: 162.33 mg/dL
- LACTATE DEHYDROGENASE [2]: 408.67 u/L
- LIPASE [2]: 10.17 u/L
- PHOSPHORUS [2]: 11.08 mg/dL
- POTASSIUM [2]: 6.36 MEQ/L
- SODIUM [2]: 146.07 MEQ/L
- TOTAL BILIRUBIN [2]: 0.22 mg/dL
- TOTAL PROTEIN [2]: 5.92 G/DL
- URIC ACID [2]: 1.47 mg/dL
- ABSOLUTE BASOPHIL [3]: 0 CELLS/uL
- ABSOLUTE EOSINOPHIL [3]: 127 CELLS/uL
- ABSOLUTE LYMPHOCYTE [3]: 14701 CELLS/uL
- ABSOLUTE MONOCYTE [3]: 340.67 CELLS/uL
- ABSOLUTE SEGMENTED NEUTROPHIL [3]: 1864.67 CELLS/uL
- BASOPHIL [3]: 0%
- EOSINOPHIL [3]: 1%
- ERYTHROCYTE COUNT [3]: 5.8 x10E6/uL
- HEMATOCRIT [3]: 35.57%
- HEMOGLOBIN [3]: 14.13 G/DL
- LEUKOCYTE COUNT [3]: 17.03 x10E3/uL
- LYMPHOCYTE [3]: 86.33%
- MEAN CORPUSCULAR HEMOGLOBIN [3]: 24.4 pg
- MEAN CORPUSCULAR HEMOGLOBIN CONCENTRATION [3]: 39.77 G/DL
- MEAN CORPUSCULAR VOLUME [3]: 61.43 fL
- MONOCYTE [3]: 2%
- NEUTROPHIL [3]: 10.67%
- NUCLEATED RED BLOOD CELLS [3]: 0 /100WBC
- PLATELET COUNT [3]: 1335 x10E3/uL
- ALANINE AMINOTRANSFERASE [3]: 47.67 u/L
- ALBUMIN [3]: 3.9 G/DL
- ALKALINE PHOSPHATASE [3]: 391.33 u/L
- ASPARTATE AMINOTRANSFERASE [3]: 101 u/L
- BLOOD UREA NITROGEN [3]: 54.33 mg/dL
- CARBON DIOXIDE [3]: 31.33 mmol/L
- CHLORIDE [3]: 101.67 MEQ/L
- CHOLESTEROL [3]: 88.33 mg/dL
- CREATINE PHOSPHOKINASE [3]: 732.33 u/L
- CREATININE [3]: 1.13 mg/dL
- GLUCOSE [3]: 142 mg/dL
- LACTATE DEHYDROGENASE [3]: 354.67 u/L
- LIPASE [3]: 10 u/L
- PHOSPHORUS [3]: 10.1 mg/dL
- POTASSIUM [3]: 6.99 MEQ/L
- SODIUM [3]: 146.8 MEQ/L
- TOTAL BILIRUBIN [3]: 0.2 mg/dL
- TOTAL PROTEIN [3]: 5.93 G/DL
- URIC ACID [3]: 0.2 mg/dL
